The subject of data set [1] is Bovidae. The settings on record: subchronic; duration: 57 days; oral; diet; no effects.
Data set [2] relates to Gallus gallus. The settings on record: subchronic, oral, diet.
Data set [3] deals with Sus scrofa. The settings on record: subchronic; duration: 42 days; oral; diet; M/F; Not specified; body weight.
Data set [4] concerns Apis mellifera. The settings on record: acute, mortality.
For data set [5], the system named is Danio rerio. To be noted: acute; duration: 96 hours; mortality.
The subject of data set [6] is Rattus norvegicus. To be noted: for LD50: acute, mortality.
For data set [7], the system named is Typhlodromus pyri. Description: LR50; higher = less toxic. The settings on record: not reported; mortality.
For data set [8], the system named is Anas platyrhynchos. The settings on record: for LD50 / LC50: oral, mortality.
Data set [9] has as its system Bibionidae. The settings on record: chronic/long-term.
For data set [10], the system named is Colinus virginianus. The settings on record: acute, oral, mortality.
For data set [11], the system named is Cyprinodon variegatus. To be noted: acute; duration: 96 hours; mortality.
The test system of data set [12] is Pimephales promelas.
The subject of data set [13] is Daphnia magna.
Data set [14] has as its system Oncorhynchus mykiss.
In data set [15] the test system is Tagia sp. To be noted: acute, mortality.
The subject of data set [16] is Mus musculus. To be noted: oral.
The subject of data set [17] is Oryctolagus sp. The settings on record: developmental; development.
The subject of data set [18] is Pontoscolex corethrurus. The settings on record: acute; mortality.
The test system of data set [19] is Homo sapiens. To be noted: clinical.
For data set [20], the system named is Lepomis macrochirus. To be noted: acute; duration: 96 hours; mortality.
For data set [21], the system named is Canidae. To be noted: oral, Dog Other.
The mark [22] stands for this setting: reproduction developmental, no effects.
Setting [23] is: chronic/long-term, duration: 21 days.
Where [24] appears, read: acute, duration: 96 hours, mortality.
Where [25] appears, read: subchronic, duration: 90 days, oral, hematological.

Experimental findings from EPA's ToxValDB 9.5 are described below.

≈ marks a conversion by molar mass, not a printed value.

For the compound `CSCCC(O)C(=O)[O-].CSCCC(O)C(=O)[O-].[Zn+2]` (stereo unspecified), the LEL is 450 mg/kg-day in data set [1]; 450 mg/kg-day in data set [2] (duration: 8 weeks, clinical chemistry); 450 mg/kg-day in data set [2] (duration: 35 days, Chicken, body weight); 450 mg/kg-day in data set [3].

As to `CC(C)[C@@H](C)[C@@H](O)[C@H](O)[C@@H](C)[C@H]1CC[C@H]2[C@@H]3COC(=O)[C@H]4C[C@H](O)[C@H](O)C[C@]4(C)[C@H]3CC[C@]12C`, the LD50 is above 10 µg/piece in [4] (duration: 48 hours, dermal); above 92.2 µg/piece in data set [4] (duration: 48 hours, oral, unspecified); above 5000 mg/kg-day in [6] (oral). The compound further had an LC50 in data set [5] above 5 µg/mL. In addition, the NOEL in [6] (setting [22]) was at least 1000 mg/kg-day. This compound also displayed an LR50 in [7] of 0.28 g/ha.

Turning to `ClC=CCCl` [1,3-Dichloropropene], the NOEC turned out to be 36 mg/kg-day in data set [8] (reproductive); 0.369 mg/L in [9] (duration: 28 days, other); 0.0069 mg/L in data set [12] (chronic/long-term, duration: 33 days, growth). Moreover, the LD50 worked out at 1080 mg/kg-day in [8] (short-term, feed); 92 mg/kg-day in data set [10]; 130 mg/kg-day in [6] (oral). The LC50 in data set [11] was 0.87 µg/mL (≈ 7.84 µM). The NOAEL in [6] (chronic, duration: 2 years, oral, diet, histopathology: neoplastic) turned out to be 2.5 mg/kg-day.

As to `CCCCCCCCCCO` [1-Decanol], the LD50 in [8] (acute, unspecified) is above 4640 mg/kg-day; in [4] (duration: 48 hours, dermal) it was above 13.8 µg/piece; in data set [6] (oral) it was 4720 mg/kg-day. Also, the LC50 was above 2550 mg/kg-day in data set [8] (short-term, feed); 2.4 µg/mL (≈ 15.2 µM) in data set [12] (setting [24]); above 628 mg/kg in [15] (duration: 14 days). In addition, the NOEC came out at 0.51 mg/L in data set [13] (setting [23]) and 0.0064 mg/L in data set [14] (chronic/long-term, duration: 28 days, growth). The NOAEL in [6] (setting [22]) was determined as 1000 mg/kg-day.

In data set [13] (acute, mortality), `CC(=O)c1cc(C)sc1C` [3-Acetyl-2,5-dimethylthiophene] returned an LC50 of 6.95 µg/mL (≈ 45.1 µM).

`Oc1cccc2cccnc12` [8-Hydroxyquinoline]: the LD50 in data set [4] (oral, unspecified) was above 68.6 µg/piece; in data set [10] (diet), above 1070 mg/kg-day; in data set [10] it was 311 mg/kg; in data set [16] (acute, mortality) it was 177 mg/kg. In addition, the LC50 in data set [14] (setting [24]) was 2 µg/mL (≈ 13.8 µM); in data set [15] it was above 409 mg/kg. The NOAEL in [17] was determined as 5 mg/kg-day; in data set [6] (chronic, duration: 2 years, body weight), 73.3 mg/kg-day; in data set [6] (setting [25]), 97.7 mg/kg-day.

As to `CC/C=C\CCCCC=O` [(Z)-Non-6-enal], the LC50 was determined as 8 µg/mL (≈ 57.1 µM) in data set [13] (acute, mortality) and 191 mg/kg in data set [18].

With `COC(=O)CCC(=O)O[C@H]1CC(C)(C)C(/C=C/C(C)=C/C=C/C(C)=C/C=C/C=C(C)/C=C/C=C(C)/C=C/C2=C(C)C(=O)[C@@H](OC(=O)CCC(=O)OC)CC2(C)C)=C(C)C1=O` [Astaxanthin dimethylsuccinate], in data set [16] (chronic, duration: 80 weeks, body weight), the NOAEL turned out to be 14 mg/kg-day. The compound further yielded an LEL in data set [14] (chronic/long-term, duration: 8 weeks, oral, feed, no effects) of 908 mg/kg.

Consider `CC1=C(/C=C/C(C)=C/C=C/C(C)=C/C=C/C=C(C)/C=C/C=C(C)/C=C/C2=C(C)C(=O)CCC2(C)C)C(C)(C)CCC1=O` [Canthaxanthin], for which the NOAEL in data set [19] (ophthalmoscopic examination) was determined as 0.25 mg/kg-day.

As for `[O-][Cl+2]([O-])[O-]` [Chlorate], the NOEL in [19] (duration: 12 weeks, oral, drinking water, M, no effects) came out at 0.036 mg/kg-day.

On to `Cc1cc(C2CC2)nc(Nc2ccccc2)n1` [Cyprodinil], for which the NOEC in data set [9] (duration: 27 days) is 80 mg/kg; in data set [9] (duration: 28 days), 0.24 mg/L; in data set [13] (setting [23]), 0.0018 mg/L; in data set [14] (setting [23]) it was 0.083 mg/L. The LC50 in data set [20] was 2.17 µg/mL (≈ 9.63 µM); in [14] (setting [24]) it was 1.35 µg/mL (≈ 5.99 µM).

With `c1ccc(Nc2ccccc2)cc1` [Diphenylamine], the LC50 was determined as 2290 mg/kg-day in data set [8] (short-term, feed) and 2.2 µg/mL (≈ 13 µM) in [14] (setting [24]). For the same compound, the NOAEL in data set [21] (chronic, duration: 1 years, clinical chemistry) turned out to be 10 mg/kg-day; in data set [21] (chronic, duration: 1 years, hematological) it was 10 mg/kg-day; in [21] (subchronic, duration: 90 days, clinical chemistry), 10 mg/kg-day; in [21] (subchronic, duration: 90 days, hematological), 10 mg/kg-day; in data set [6] (chronic, duration: 2 years, hematological), 7.5 mg/kg-day; in data set [6] (subchronic, duration: 90 days, oral, clinical chemistry), 9.6 mg/kg-day. In addition, the NOAEL in data set [6] (setting [25]) is 9.6 mg/kg-day. The same compound returned an LD50 in data set [10] above 2250 mg/kg-day. The NOEC in [13] (acute, duration: 48 hours, mortality) was below 0.38 mg/L; in data set [14] (setting [24]) it was 0.71 mg/L.
